Test results: publication PMC10529921, “Structure–Activity Relationship of Novel ACE Inhibitory Undecapeptides from Stropharia rugosoannulata by Molecular Interactions and Activity Analyses” (Foods, 2023)
Counter-ions that a name gives are not always drawn.

Key:
[1] = test system: Wistar rats; conditions: 10 mg/kg, single gavage; low body weight in two rats given as main reason
Protocol: (§1) Eleven-week-old male SHR rats and Wistar rats (SiPeiFu (Suzhou) Biotechnology Co., Ltd., Suzhou, China) weighing 200–250 g were used. After 7 d of acclimatization feeding, SHR rats and Wistar rats were randomly grouped into 6 rats per group for a single gavage administration treatment. The undecapeptide and the commercial antihypertensive drug Benazepril hydrochloride were administered in a gavage dose of 10 mg/kg body weight (the recommended dose of Benazepril hydrochloride). SHR rats with regular saline treatment were used as the blank control group. The systolic blood pressure (SBP) and diastolic blood pressure (DBP) of rats were monitored by the Softron BP system (Softron BP-2010A, Tokyo, Japan) at 0, 2, 4, 6, 8, and 24 h after drug administration. At the end of the treatment, the organ coefficients were calculated (organ weight as a percentage of the body weight of the rat, mg/g).
(§2) Data from the in vivo tests were presented as means ± standard deviations of 6 measurements.

[2] = test system: SHR rats; test: Organ coefficients in SHR rats; type: in vivo, rat (SHR); conditions: 10 mg/kg, single gavage
Protocol: as §1, §2

[3] = test system: SHR rats; test: Antihypertensive effect after single gavage in SHR rats; type: in vivo, rat (SHR); conditions: n = 6
Protocol: as §1, §2

[4] = 10 mg/kg, most significant effect at 8 h, mean ± SD

SMILES	Kidney organ coefficient, Wistar [1]	Effect on organs, SHR [2]	Heart organ coefficient vs blank control, SHR ([2]; significance p < 0.05)	Blood pressure lowering (SBP and DBP), SHR ([3]; 10 mg/kg, 2, 4, 6 and 8 h)	Decrease in DBP, SHR [3, 4] [mmHg]	Decrease in SBP, SHR [3, 4] [mmHg]	Rebound of blood pressure values, SHR ([3]; 10 mg/kg)	Time of most significant blood pressure lowering effect, SHR ([3]; 10 mg/kg) [h]
CC(C)C[C@H](NC(=O)[C@@H]1CCCN1C(=O)[C@H](CCCNC(=N)N)NC(=O)[C@H](CC(C)C)NC(=O)[C@H](CCCNC(=N)N)NC(=O)[C@H](CC(=O)O)NC(=O)[C@H](Cc1ccc(O)cc1)NC(=O)[C@H](CC(=O)O)NC(=O)[C@H](CCC(=O)O)NC(=O)[C@H](CCC(N)=O)NC(=O)CN)C(=O)O	considerably higher	less impact on the organs of SHR rats	no significant difference					
CCOC(=O)[C@H](CCc1ccccc1)N[C@H]1CCc2ccccc2N(CC(=O)O)C1=O [Benazepril hydrochloride]				better blood pressure lowering effects after 2, 4, 6, and 8 h	39.17 ± 1.81	54.94 ± 1.79	began to rebound after 8 h	8
